From patent publication US20230087766A1, “METHODS OF REACTIVATING LATENT HUMAN IMMUNODEFICIENCY VIRUS AND RELATED COMPOSITIONS” (priority 2017, published 2023)
Entries after “also recorded” stand apart in the source; their conditions may differ.

Experiments:
Assay type in all cases: cell-based
[1] = system: latent HIV in resting CD4+ T cells from HIV-infected individuals under ART; assay: Quantitative Viral Outgrowth Assay (QVOA), p24 ELISA; conditions: resting CD4+ T cells from 5 HIV-infected individuals under ART; ex vivo
Description: It was tested whether the histone crotonylation inducer, sodium crotonate, can reactivate latent HIV reservoirs from a patient under ART. Peripheral blood samples were obtained from 5 HIV-infected individuals with undetectable plasma viral loads and higher CD4+ T cell numbers (see Table 1). One million resting CD4+ T cells were treated with IL-2, PHA+IL-2, or IL-2+Na-Cro, and HIV p24 production was measured by QVOA using p24 ELISA as a measure of HIV reactivation.
Quantitative Viral Outgrowth Assay: Peripheral blood mononuclear cells (PBMC) were obtained from HIV-infected individuals on suppressive ART (n=5) by continuous-flow leukopheresis. Isolation of resting CD4+ T cells and quantification of replication competent virus was performed as previously described (see S. Dandekar, et al. Current HIV/AIDS reports 4, 10-15 (2007)). […] Cultures were scored as positive if p24 was detected at day 15 and was increased in concentration at day 19. […]

[2] = system: latent HIV in U1 cells; assay: Reactivation of latent HIV in U1 cells by RT-qPCR; conditions: Na-Cro at 40 mM
Description: Cell culture: J-Lat Al cells (derived from Jurkat cells harboring HIV LTR-Tat-GFP gene) and U1 cells (promonocytic cell line harboring one copy of HIV genome with defective tat gene) were obtained from NIH AIDS Reagent Program and cultured at 37° C. with 5% CO2 in RPM11640 medium containing 10% FBS and 1% penicillin-streptomycin as previously described (see G. Jiang, et al. PLoS Pathogens 11, e1005066 (2015)).
For inhibiting ACSS2 and crotonylation, cells were pretreated with ACSS2 inhibitor, AR12 (SELLECK CHEMICALS™, Houston, Tex.), for 30 minutes, followed by Na-Cro treatment for 4 or 18 hours.
Real-Time PCR Analysis: HIV gene expression was measured using real-time PCR in J-Lat Al cells treated with LRAs. Total nucleic acid was extracted using RNEASY™ Kit, genomic DNA digested using DNase I and total RNA reverse transcribed using Superscript III to synthesize cDNA. […] […] TAMRA-3′ (SEQ ID NO:3).

[3] = system: J-Lat A1 cells; assay: Cellular viability by flow cytometry of live/dead staining; conditions: Na-Cro 10 mM to 40 mM
Description: An increased concentration of Na-Cro was added in the J-Lat A1 cells, and cellular viability was evaluated by flow cytometry of live/dead staining.

[4] = system: ACSS2; assay: ACSS2 expression in J-Lat A1 cells; conditions: Na-Cro treatment
Excerpt: FIG. 3 is a series of graphs showing that suppression of acetyl-CoA synthetase 2 (ACSS2) enzyme disrupts crotonyl-CoA induced reactivation of latent HIV. Panel A illustrates that Na-Cro addition to J-Lat Al cells increased expression of ACSS2 enzyme. **, p<0.01 compared with control treatment. Panel B illustrates expression of ACSS2 after ACSS2 siRNA knockdown in TZM-bl HIV reporter cells. **, p<0.01 compared with control siRNA. Panel C illustrates knockdown of ACSS2 decreased Na-Cro-driven HIV transcription. *, p<0.05 compared with control siRNA. Panels D and E illustrate that pretreatment with ACSS2 inhibitor, AR12, dampens reactivation of latent HIV (see panel D) by inhibition of histone crotonylation (see panel E) at the HIV LTR. **, p<0.01 and ***, p<0.001, compared with control treatment. ##, p<0.01 and ###, p<0.001 compared with Na-Cro treatment.

C/C=C/C(=O)[O-].[Na+] [Na-Cro, sodium crotonate]
replication-competent HIV recovered (HIV reactivation, QVOA) [1]: four of the five participants
increase in viral transcription compared to untreated controls [2]: 6 fold
cell toxicity [3]: not toxic to immune cells; also recorded: Minimal cell toxicity
increase in ACSS2 expression [4]: 70 fold
